The target in one assay is T1, RORγ-LBD (RORγt) (Homo sapiens, UniProt P51449).
T1 construct: the 6-His-(GST) RORγ-LBD was used which expressed and purified from baculovirus infected Sf-21 insect cells; made in house; host or cells: baculovirus-infected Sf-21 insect cells
T1 sequence (P51449 269-508 limits assumed): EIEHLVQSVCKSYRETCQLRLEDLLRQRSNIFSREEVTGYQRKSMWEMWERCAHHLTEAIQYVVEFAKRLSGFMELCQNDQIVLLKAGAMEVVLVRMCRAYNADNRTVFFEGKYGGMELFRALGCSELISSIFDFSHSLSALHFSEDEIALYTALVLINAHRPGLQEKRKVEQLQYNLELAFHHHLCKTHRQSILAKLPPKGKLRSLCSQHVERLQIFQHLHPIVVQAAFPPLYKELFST
Briefly: TR-FRET RORγt Binding Assay. The note with it: 6-His(GST)RORγ-LBD, SRC1_2 peptide, read-out: RORγt Binding. How it is done:
TR-FRET RORγt Binding Assay: RORγ-LBD contains a 6-His and GST tag peptide from SRC1-2 an aminoterminal biotinyl-[…] was employed and the 6-His-(GST) RORγ-LBD was used which expressed and purified from baculovirus infected Sf-21 insect cells from Invitrogen and purified using glutathione sepharose. […] The peptide binding due to dose-curves of compounds was added the 0.1% DMSO. Fluorescence at wavelength 340 nm was read in each well of […] using an Envision fluorescence reader in Time Resolved mode after overnight incubation at 4° C.
In general terms: Time-resolved FRET reads energy transfer from a long-lived donor to a nearby acceptor.

Assay [1] concerns IL-17 release from CD4+ T cells. Kind of assay: Cytokine IL-17 estimation by HTRF, IL-17 release from CD4+ T cells. The settings on record: Homo sapiens, IL-17 release from CD4+ T cells, HTRF, read-out: IL-17 Inhibition. It is filed as cell-based. An excerpt: The assay was designed to assess the potency of test compounds on IL-17 cytokine release from CD4+ T cells. In order to aid in the identification of potent inhibitors, the IC50's determined for the test compounds IL-17 release from CD4+ T cells through the generation of 10 point Dose Response Curves (DRC). Assay methods used to quantify IL-17 secretion is HTRF (Homogenous Time Resolved Fluorescence). IL-17 secreted is detected by anti-IL-17 MAb labeled with XL665, the second MAb labeled with Cryptate, which binds to specific epitopes of human IL-17. Upon close proximity of both acceptor and donor energy transfer (FRET) occurs. This technique has been further enhanced by using long-lived labels combined with the detection on a time-resolved fluorescence basis, allowing […] of prompt fluorescence interferences.
The assay was performed according to manufacturer's instruction. All the reagents were reconstituted according to instructions provided. The reagents were dispensed into a half area 96-well plate in the following order: […] or sample, IL-17 MAbXL665 and 5 μL IL-17 Cryptate. For the negative control, the standard or sample is replaced by […]. The plate is covered with a plate sealer and incubated at rt for 2 h. Following incubation, the plate sealer is removed and the plate is read using HTRF protocol on Envision Microplate reader. All of the data analysis was carried out using Microsoft Excel (2010) and IC50 was determined using GraphPad Prism 4 software. % Inhibition of the test compounds were determined utilizing the following formula: % Inhibition=100−(100*(Average Test Compound Counts−Average Negative Control Counts)/(Average Positive Control Counts−Average Negative Control Counts)).
We have established robust in vitro cell-based HTRF assay for the activation and stimulation of CD4+ T lymphocytes to T helper 17 (Th17) cell differentiation and IL-17 production.

A further assay addresses T2, RORγt (Homo sapiens, UniProt P51449).
T2 construct: host or cells: IL-17A Prom/LUCPorter HEK 293 cell line (IMGENEX, IML-301)
T2 sequence (P51449 1-497 isoform P51449-2): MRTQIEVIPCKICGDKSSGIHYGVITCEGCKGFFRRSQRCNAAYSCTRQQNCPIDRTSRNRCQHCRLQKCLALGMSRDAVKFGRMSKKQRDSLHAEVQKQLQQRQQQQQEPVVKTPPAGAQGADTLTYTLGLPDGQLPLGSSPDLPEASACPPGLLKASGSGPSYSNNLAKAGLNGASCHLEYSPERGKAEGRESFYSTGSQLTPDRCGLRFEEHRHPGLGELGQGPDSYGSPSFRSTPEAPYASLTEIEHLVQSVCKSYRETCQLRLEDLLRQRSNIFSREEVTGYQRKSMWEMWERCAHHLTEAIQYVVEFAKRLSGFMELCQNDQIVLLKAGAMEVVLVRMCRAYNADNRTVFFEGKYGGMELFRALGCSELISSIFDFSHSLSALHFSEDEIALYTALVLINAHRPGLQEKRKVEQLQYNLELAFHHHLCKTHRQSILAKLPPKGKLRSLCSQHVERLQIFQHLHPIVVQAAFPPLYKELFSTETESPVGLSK
Briefly: RORγt-activated IL-17A Prom/LUCPorter HEK 293 cells luciferase reporter assay. The settings on record: IL-17A Prom/LUCPorter HEK 293 cells transfected with RORγt, 16 h; read-out: RORγt Cell Specific. It is filed as cell-based. How it is done:
Antagonistic (or inverse agonistic) effects of the test compounds on the RORγt-activated IL-17A Prom/LUCPorter™ HEK 293 cells were analyzed and IC50 of each compound was evaluated. […] Luciferase activity was analyzed using the luciferase reporter assay reagent (IMGENEX, LS100). The data were analyzed using Excel and Prism software. Percent activity was defined as 100×(1−(Well−Control A)/(Control B−Control A)), where Control A was the wells containing cells transfected with RORγt and Control B was the wells containing non-transfected cells. Both Controls A and B were treated with vehicle alone.
A general note: In a reporter assay the amount or activity of a reporter protein is the signal.

Here are results for 22 compounds from patent US9446047B2, “Substituted 2,3-dihydro-1H-inden-1-one retinoic acid-related orphan nuclear receptor antagonists for treating multiple sclerosis” (Arrien Pharmaceuticals LLC, priority 2013, dated 2016).

As to `COc1cc2c(cc1N1CCOCC1)CC(Cc1cc(C(F)(F)F)ccc1NC(=O)C(C)(C)C)C2=O` (stereo not drawn) [compound 65, N-(2-((6-methoxy-5-morpholino-1-oxo-2,3-dihydro-1H-inden-2-yl)methyl)-4-(trifluoromethyl)phenyl)pivalamide], the results for the IC50 (on RORγ-LBD (RORγt); in assay [1]; at RORγt) were greater than 10 µM, greater than 1 µM and greater than 1 µM, respectively.
Turning to `COc1cc2c(cc1N1CCOCC1)CC(Cc1ncccc1C(F)(F)F)C2=O` (stereo not drawn) [compound 68, 6-methoxy-5-morpholino-2-((3-(trifluoromethyl)pyridin-2-yl)methyl)-2,3-dihydro-1H-inden-1-one], the IC50 (at RORγ-LBD (RORγt); in assay [1]; on RORγt) was less than 0.5 µM throughout.
As for `COc1cc2c(cc1N1CCOCC1)CC(Cc1ccc(C(F)(F)F)nc1)C2=O` (stereo not drawn) [compound 71, 6-methoxy-5-morpholino-2-((6-(trifluoromethyl)pyridin-3-yl)methyl)-2,3-dihydro-1H-inden-1-one], the IC50 was greater than 10 µM at RORγ-LBD (RORγt), greater than 1 µM in assay [1] and greater than 10 µM at RORγt.
As for `COc1cc2c(cc1N1CCOCC1)CC(Cc1ccc(SC(F)(F)F)cc1)C2=O` (stereo not drawn) [compound 74, 6-methoxy-5-morpholino-2-(4-((trifluoromethyl)thio)benzyl)-2,3-dihydro-1H-inden-1-one], the values for the IC50 (on RORγ-LBD (RORγt); in assay [1]; at RORγt) were greater than 10 µM, greater than 1 µM and greater than 10 µM, respectively.
For `COc1cc2c(cc1N1CCOCC1)CC(Cc1cc(C(F)(F)F)ccc1F)C2=O` (stereo not drawn) [compound 77, 2-(2-fluoro-5-(trifluoromethyl)benzyl)-6-methoxy-5-morpholino-2,3-dihydro-1H-inden-1-one], the IC50 (on RORγ-LBD (RORγt); in assay [1]; at RORγt) was greater than 1 µM each time.
On to `COc1cc2c(cc1N1CCOCC1)CC(Cc1cccc(C(F)(F)F)c1F)C2=O` (stereo not drawn) [compound 80], for which the IC50 (on RORγ-LBD (RORγt); in assay [1]; on RORγt) was greater than 1 µM throughout.
Consider `COc1cc2c(cc1N1CCOCC1)CC(Cc1ccc(C(F)(F)F)cc1)C2=O` (stereo not drawn) [compound 86], for which the IC50 (at RORγ-LBD (RORγt); in assay [1]; on RORγt) was greater than 1 µM in each case.
As for `COc1cc2c(cc1N1CCOCC1)CC(Cc1ccc(Cl)c(C(F)(F)F)c1)C2=O` (stereo not drawn) [compound 89], the results for the IC50 (on RORγ-LBD (RORγt); in assay [1]; on RORγt) were greater than 1 µM, less than 0.5 µM and greater than 1 µM, respectively.
On to `COc1cc2c(cc1N1CCOCC1)CC(Cc1ccc(C(F)(F)F)c(Cl)c1)C2=O` (stereo not drawn) [compound 92], for which the IC50 (on RORγ-LBD (RORγt); in assay [1]; on RORγt) was greater than 1 µM each time.
Consider `COc1cc2c(cc1N1CCOCC1)CC(Cc1cc(C)n[nH]1)C2=O` (stereo not drawn) [compound 95], for which the IC50 (at RORγ-LBD (RORγt); in assay [1]; on RORγt) was greater than 1 µM throughout.
`COc1cc2c(cc1N1CCN(C)CC1)CC(Cc1cccc(C(F)(F)F)c1)C2=O` (stereo not drawn) [compound 103, 6-methoxy-5-(4-methylpiperazin-1-yl)-2-(3-(trifluoromethyl)benzyl)-2,3-dihydro-1H-inden-1-one]: the IC50 on RORγ-LBD (RORγt) is less than 0.5 µM; in assay [1] it was greater than 1 µM; on RORγt, greater than 1 µM.
For the compound `COc1cc2c(cc1N1CCN(C)CC1)CC(Cc1ccc(SC(F)(F)F)cc1)C2=O` (stereo not drawn) [compound 106], the IC50 on RORγ-LBD (RORγt) is less than 0.5 µM; in assay [1], greater than 1 µM; on RORγt, greater than 1 µM.
Take `COc1cc2c(cc1N1CCN(C)CC1)CC(Cc1cccc(C(F)(F)F)c1Cl)C2=O` (stereo not drawn) [compound 110, 2-(2-chloro-3-(trifluoromethyl)benzyl)-6-methoxy-5-(4-methylpiperazin-1-yl)-2,3-dihydro-1H-inden-1-one]: the IC50 at RORγ-LBD (RORγt) was less than 0.5 µM; in assay [1], greater than 1 µM; on RORγt, less than 0.5 µM.
Take `COc1cc2c(cc1N1CCN(C)CC1)CC(Cc1ncccc1C(F)(F)F)C2=O` (stereo not drawn) [compound 113]: the IC50 is less than 0.5 µM on RORγ-LBD (RORγt), greater than 1 µM in assay [1] and less than 0.5 µM on RORγt.
On to `COc1cc2c(cc1N1CCNCC1)CC(Cc1ccc(SC(F)(F)F)cc1)C2=O` (stereo not drawn) [compound 117], for which the IC50 on RORγ-LBD (RORγt) is less than 0.5 µM; in assay [1], greater than 1 µM; on RORγt, greater than 1 µM.
For `COc1cc2c(c(N3CCOCC3)c1OC)CC(Cc1ncccc1C(F)(F)F)C2=O` (stereo not drawn) [compound 123, 5,6-dimethoxy-4-morpholino-2-((3-(trifluoromethyl)pyridin-2-yl)methyl)-2,3-dihydro-1H-inden-1-one], the IC50 (on RORγ-LBD (RORγt); in assay [1]; on RORγt) was greater than 1 µM each time.
For `COc1cc2c(c(N3CCN(C)CC3)c1OC)CC(Cc1ccc(SC(F)(F)F)cc1)C2=O` (stereo not drawn) [compound 125, 5,6-dimethoxy-4-(4-methylpiperazin-1-yl)-2-(4-((trifluoromethyl)thio)benzyl)-2,3-dihydro-1H-inden-1-one], the IC50 (at RORγ-LBD (RORγt); in assay [1]; on RORγt) was greater than 1 µM in each case.
As for `COc1cc2c(c(N3CCN(C)CC3)c1OC)CC(Cc1ncccc1C(F)(F)F)C2=O` (stereo not drawn) [compound 128, 5,6-dimethoxy-4-(4-methylpiperazin-1-yl)-2-((3-(trifluoromethyl)pyridin-2-yl)methyl)-2,3-dihydro-1H-inden-1-one], the IC50 (at RORγ-LBD (RORγt); in assay [1]; on RORγt) was greater than 1 µM in each case.
With `COc1cc2c(c(N3CCC(C)CC3)c1OC)CC(Cc1ccc(SC(F)(F)F)cc1)C2=O` (stereo not drawn) [compound 131, 5,6-dimethoxy-4-(4-methylpiperidin-1-yl)-2-(4-((trifluoromethyl)thio)benzyl)-2,3-dihydro-1H-inden-1-one], the IC50 (on RORγ-LBD (RORγt); in assay [1]; on RORγt) was greater than 1 µM each time.
Consider `COc1cc2c(c(N3CCC(C)CC3)c1OC)CC(Cc1ncccc1C(F)(F)F)C2=O` (stereo not drawn) [compound 133, 5,6-dimethoxy-4-(4-methylpiperidin-1-yl)-2-((3-(trifluoromethyl)pyridin-2-yl)methyl)-2,3-dihydro-1H-inden-1-one], for which the IC50 (at RORγ-LBD (RORγt); in assay [1]; on RORγt) was greater than 1 µM throughout.
In the case of `COc1cc2c(cc1N1CCC(C)CC1)CC(Cc1ccc(SC(F)(F)F)cc1)C2=O` (stereo not drawn) [compound 140], the IC50 was less than 0.5 µM at RORγ-LBD (RORγt), greater than 10 µM in assay [1] and greater than 1 µM at RORγt.
On to `COc1cc2c(cc1N1CCC(C)CC1)CC(Cc1ncccc1C(F)(F)F)C2=O` (stereo not drawn) [compound 142], for which the IC50 was greater than 1 µM at RORγ-LBD (RORγt), less than 0.5 µM in assay [1] and greater than 1 µM on RORγt.
